Test results from BindingDB's records for doi:10.1021/jm00092a001 (Wyeth-Ayerst Research, 1992).

How the values were obtained:
[1] = The compound was tested for inhibitory activity against 5-Lipoxygenase in guinea pig polymorphonuclear leukocytes
[2] = target: Polyunsaturated fatty acid 5-lipoxygenase (Mus musculus) (UniProt P48999); experiment: The compound was tested for inhibitory activity against 5-lipoxygenase in mouse
Polyunsaturated fatty acid 5-lipoxygenase (Mus musculus), sequence (P48999 whole entry, looked up): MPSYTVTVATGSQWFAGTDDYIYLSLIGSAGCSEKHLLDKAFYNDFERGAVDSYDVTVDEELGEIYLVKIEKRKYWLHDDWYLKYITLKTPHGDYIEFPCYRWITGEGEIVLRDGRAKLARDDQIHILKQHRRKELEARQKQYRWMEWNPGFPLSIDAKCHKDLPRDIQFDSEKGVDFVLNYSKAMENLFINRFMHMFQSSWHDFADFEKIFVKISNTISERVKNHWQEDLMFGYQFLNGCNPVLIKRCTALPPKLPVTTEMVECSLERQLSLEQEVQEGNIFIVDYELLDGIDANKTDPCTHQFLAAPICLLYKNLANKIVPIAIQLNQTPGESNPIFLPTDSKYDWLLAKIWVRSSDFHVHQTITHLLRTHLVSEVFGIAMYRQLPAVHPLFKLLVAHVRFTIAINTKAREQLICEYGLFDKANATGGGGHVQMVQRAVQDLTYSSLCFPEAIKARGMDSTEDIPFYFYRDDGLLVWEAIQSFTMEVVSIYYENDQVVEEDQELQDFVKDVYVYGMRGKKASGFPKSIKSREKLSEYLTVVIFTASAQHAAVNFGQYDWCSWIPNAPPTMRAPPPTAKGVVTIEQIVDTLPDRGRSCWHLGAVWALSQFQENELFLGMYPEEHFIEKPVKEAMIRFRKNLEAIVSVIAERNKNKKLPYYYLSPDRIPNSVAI

| IC50 [1] | IC50 [2] | SMILES |
| --- | --- | --- |
| 0.6 µM | – | Cc1ccc(C)n1-c1ccc(/C=C/CC(=O)N(C)O)cc1 |
| – | 0.3 µM | Cc1nc(NCCCCCCc2ccccc2)nc(C)c1O |
